# Activity calls are given as the source filed them. The calls are words filed in the database; no cut-off is given here.
# Assays:
# A498 [1] = assay: Anticancer activity against human A498 cells assessed as cell growth at 80 ug/mL by sulforhodamine B assay; type: functional; settings: read-out: Activity
# [2] = test system: Mycobacterium tuberculosis; assay: Antitubercular activity against Mycobacterium tuberculosis H37Rv after 3 weeks by turbidity assay; type: functional; settings: 504 h
# A549 [3] = assay: Anticancer activity against human A549 cells assessed as cell growth at 10 ug/mL by sulforhodamine B assay; type: functional; settings: read-out: Activity
# A549 [4] = assay: Anticancer activity against human A549 cells assessed as cell growth at 80 ug/mL by sulforhodamine B assay; type: functional; settings: read-out: Activity
# A549 [5] = assay: Cytotoxicity against human A549 cells; type: functional
# [6] = Antioxidant activity assessed as potassium ferric cyanide reducing power at 100 ug after 20 mins by spectrophotometry; type: functional
# A498 [7] = assay: Anticancer activity against human A498 cells assessed as cell growth at 40 ug/mL by sulforhodamine B assay; type: functional; settings: read-out: Activity
# [8] = Antioxidant activity assessed as potassium ferric cyanide reducing power at 10 ug after 20 mins by spectrophotometry; type: functional
# Nucleic Acid = assay: Induction of Escherichia coli DNA cleavage at 100 ug after 2 hrs by agarose gel electrophoresis; type: nucleic-acid assay
# A549 [9] = assay: Anticancer activity against human A549 cells assessed as cell growth at 20 ug/mL by sulforhodamine B assay; type: functional; settings: read-out: Activity
# A498 [10] = assay: Anticancer activity against human A498 cells assessed as cell growth at 10 ug/mL by sulforhodamine B assay; type: functional; settings: read-out: Activity
# [11] = Antioxidant activity assessed as potassium ferric cyanide reducing power at 50 ug after 20 mins by spectrophotometry; type: functional
# A498 [12] = assay: Anticancer activity against human A498 cells assessed as cell growth at 20 ug/mL by sulforhodamine B assay; type: functional; settings: read-out: Activity
# A549 [13] = assay: Anticancer activity against human A549 cells assessed as cell growth at 40 ug/mL by sulforhodamine B assay; type: functional; settings: read-out: Activity
# A498 [14] = assay: Cytotoxicity against human A498 cells; type: functional
SMILES,growth at 80 µg/mL (A498 [1]),MIC [2],growth at 10 µg/mL (A549 [3]),growth at 80 µg/mL (A549 [4]),GI50 (A549 [5]),LC50 (A549 [5]),TGI (A549 [5]),reducing power [6],growth at 40 µg/mL (A498 [7]),reducing power [8],Activity (Nucleic Acid),growth at 20 µg/mL (A549 [9]),growth at 10 µg/mL (A498 [10]),reducing power [11],growth at 20 µg/mL (A498 [12]),growth at 40 µg/mL (A549 [13]),GI50 (A498 [14]),LC50 (A498 [14]),TGI (A498 [14])
Clc1cccc(C2CC(c3ccc4[nH]c5c(c4c3)CCCC5)=NN2)c1 (stereo not given),33.5%,4.5 µg/mL,81.6%,15.3%,49.8 µg/mL,> 80 µg/mL,> 80 µg/mL,0.147 absorbance,97.9%,0.015 absorbance,inactive,76.2%,100%,0.066 absorbance,100%,69.4%,74.3 µg/mL,> 80 µg/mL,> 80 µg/mL
Clc1ccccc1C1CC(c2ccc3[nH]c4c(c3c2)CCCC4)=NN1 (stereo not given),16.2%,5 µg/mL,90.2%,12.1%,51.6 µg/mL,> 80 µg/mL,> 80 µg/mL,0.295 absorbance,97.4%,0.004 absorbance,inactive,81.6%,100%,0.121 absorbance,100%,75.7%,62 µg/mL,> 80 µg/mL,> 80 µg/mL
NC(=O)c1cnccn1 [PYRAZINAMIDE],–,10 µg/mL,–,–,–,–,–,–,–,–,–,–,–,–,–,–,–,–,–
COc1cccc2c1C(=O)c1c(O)c3c(c(O)c1C2=O)C[C@@](O)(C(=O)CO)C[C@@H]3O[C@H]1C[C@H](N)[C@H](O)[C@H](C)O1 [DOXORUBICIN],-66.9%,–,10.7%,-66.9%,< 10 µg/mL,–,41.3 µg/mL,–,-39.5%,–,–,8.2%,10.7%,–,8.2%,-39.5%,< 10 µg/mL,–,32.4 µg/mL
CN[C@@H]1[C@H](O[C@H]2[C@H](O[C@H]3[C@H](O)[C@@H](O)[C@H](N=C(N)N)[C@@H](O)[C@@H]3N=C(N)N)O[C@@H](C)[C@]2(O)C=O)O[C@@H](CO)[C@H](O)[C@H]1O [STREPTOMYCIN],–,7.5 µg/mL,–,–,–,–,–,–,–,–,–,–,–,–,–,–,–,–,–
Cc1ccc(C2CC(c3ccc4[nH]c5c(c4c3)CCCC5)=NN2)cc1 (stereo not given),4.6%,12 µg/mL,11.9%,-28.4%,74.3 µg/mL,> 80 µg/mL,> 80 µg/mL,0.17 absorbance,96.2%,0.05 absorbance,inactive,-2.9%,99.3%,0.11 absorbance,99.2%,-18.5%,54 µg/mL,> 80 µg/mL,> 80 µg/mL
Clc1ccc(C2CC(c3ccc4[nH]c5c(c4c3)CCCC5)=NN2)cc1 (stereo not given),31.7%,3.5 µg/mL,83.2%,11.5%,47.6 µg/mL,> 80 µg/mL,> 80 µg/mL,0.303 absorbance,97.5%,0.011 absorbance,Active,74.6%,100%,0.191 absorbance,100%,67.1%,72.7 µg/mL,> 80 µg/mL,> 80 µg/mL

# Reference: ChEMBL document CHEMBL1817634, “One-pot synthesis of pyrazoline derivatised carbazoles as antitubercular, anticancer agents, their DNA cleavage and antioxidant activities” (2011)
